Test system: MV-4-11 cells
Assay: Gene expression microarray analysis (Affymetrix PrimeView) and GSEA
Format: cell-based, human
Design: RFU PODN (11730768_x_at) / Fold change /veh PODN (11730768_x_at) / RFU LINC00158 (11744669_a_at) / Fold change /veh LINC00158 (11744669_a_at) / RFU DUSP10 (11751237_a_at) / Fold change /veh DUSP10 (11751237_a_at) / RFU ID3 (11757404_x_at) / Fold change /veh ID3 (11757404_x_at) / RFU PLEKHG5 (11737974_s_at) / Fold change /veh PLEKHG5 (11737974_s_at) / RFU LRRC4B (11730491_at) / Fold change /veh LRRC4B (11730491_at) / RFU GIMAP4 (11747438_a_at) / Fold change /veh GIMAP4 (11747438_a_at) / RFU KRT8 (11758183_x_at) / Fold change /veh KRT8 (11758183_x_at) / RFU CNN1 (11734310_a_at) / Fold change /veh CNN1 (11734310_a_at) / RFU VPS37D (11726825_at) / Fold change /veh VPS37D (11726825_at) / RFU C10orf10 (11716522_x_at) / Fold change /veh C10orf10 (11716522_x_at) / RFU KIR2DL2 /// KIR2DL4 /// KIR2DL5A /// KIR2DL5B /// KIR2DS1 /// KIR2DS2 /// KIR2DS3 /// KIR2DS4 /// KIR3DL3 /// KIR3DL3 /// KIR3DS1 (11738374_at) / Fold change /veh KIR2DL2 /// KIR2DL4 /// KIR2DL5A /// KIR2DL5B /// KIR2DS1 /// KIR2DS2 /// KIR2DS3 /// KIR2DS4 /// KIR3DL3 /// KIR3DL3 /// KIR3DS1 (11738374_at) / RFU C1QL1 (11718748_at) / Fold change /veh C1QL1 (11718748_at) / RFU TMPRSS4 (11747572_a_at) / Fold change /veh TMPRSS4 (11747572_a_at) / RFU HAMP (11756126_x_at) / Fold change /veh HAMP (11756126_x_at) / RFU RNFT2 (11725882_a_at) / Fold change /veh RNFT2 (11725882_a_at) / RFU NR4A2 (11747474_a_at) / Fold change /veh NR4A2 (11747474_a_at) / RFU ABCC12 (11746883_a_at) / Fold change /veh ABCC12 (11746883_a_at) / RFU TMEM136 (11760407_x_at) / Fold change /veh TMEM136 (11760407_x_at) / RFU CLDN22 /// WWC2 (11732394_at) / Fold change /veh CLDN22 /// WWC2 (11732394_at) / RFU HLA-DPB1 (11760878_x_at) / Fold change /veh HLA-DPB1 (11760878_x_at) / RFU SPINT1 (11716480_a_at) / Fold change /veh SPINT1 (11716480_a_at) / RFU GAP43 (11754022_s_at) / Fold change /veh GAP43 (11754022_s_at) / RFU A4GNT (11735810_at) / Fold change /veh A4GNT (11735810_at) / RFU PRB3 (11715151_x_at) / Fold change /veh PRB3 (11715151_x_at) / RFU TUBB4B (11761932_at) / Fold change /veh TUBB4B (11761932_at) / RFU CAPN14 (11732068_a_at) / Fold change /veh CAPN14 (11732068_a_at) / RFU TMCC2 (11721928_a_at) / Fold change /veh TMCC2 (11721928_a_at) / RFU IRGQ (11745062_a_at) / Fold change /veh IRGQ (11745062_a_at) / RFU FAM174B (11720279_a_at) / Fold change /veh FAM174B (11720279_a_at) / RFU TMPRSS4 (11748680_a_at) / Fold change /veh TMPRSS4 (11748680_a_at) / RFU FAM212B (11763350_a_at) / Fold change /veh FAM212B (11763350_a_at) / RFU PLEKHG5 (11743358_a_at) / Fold change /veh PLEKHG5 (11743358_a_at) / RFU ZSCAN30 (11745921_a_at) / Fold change /veh ZSCAN30 (11745921_a_at) / RFU CMKLR1 (11741424_a_at) / Fold change /veh CMKLR1 (11741424_a_at) / RFU LOC101060620 /// MAPK8IP1 (11723275_at) / Fold change /veh LOC101060620 /// MAPK8IP1 (11723275_at) / RFU SPTSSB (11747773_x_at) / Fold change /veh SPTSSB (11747773_x_at) / RFU PRSS12 (11739890_at) / Fold change /veh PRSS12 (11739890_at) / RFU BIN1 (11741810_x_at) / Fold change /veh BIN1 (11741810_x_at) / RFU WNT11 (11732464_a_at) / Fold change /veh WNT11 (11732464_a_at) / RFU C10orf10 (11716521_a_at) / Fold change /veh C10orf10 (11716521_a_at) / RFU C5orf56 (11738089_at) / Fold change /veh C5orf56 (11738089_at) / RFU CYB561 (11721691_x_at) / Fold change /veh CYB561 (11721691_x_at) / RFU ANKRD19P (11752326_a_at) / Fold change /veh ANKRD19P (11752326_a_at) / RFU OR2T12 /// OR2T33 /// OR2T8 (11738714_s_at) / Fold change /veh OR2T12 /// OR2T33 /// OR2T8 (11738714_s_at) / RFU VCAN (11748164_a_at) / Fold change /veh VCAN (11748164_a_at) / RFU JSRP1 (11732532_at) / Fold change /veh JSRP1 (11732532_at) / RFU KRTAP10-11 (11738290_x_at) / Fold change /veh KRTAP10-11 (11738290_x_at) / RFU MYO3A (11730013_a_at) / Fold change /veh MYO3A (11730013_a_at) / RFU EBF3 (11725865_a_at) / Fold change /veh EBF3 (11725865_a_at) / RFU CAMK2N1 (11719241_x_at) / Fold change /veh CAMK2N1 (11719241_x_at) / RFU C5orf56 (11738088_a_at) / Fold change /veh C5orf56 (11738088_a_at) / RFU OLFML3 (11715873_a_at) / Fold change /veh OLFML3 (11715873_a_at) / RFU LOC100653217 /// NTM (11731650_a_at) / Fold change /veh LOC100653217 /// NTM (11731650_a_at) / RFU MAPK11 (11762145_a_at) / Fold change /veh MAPK11 (11762145_a_at) / RFU FIZ1 (11724087_x_at) / Fold change /veh FIZ1 (11724087_x_at) / RFU OASL (11726364_x_at) / Fold change /veh OASL (11726364_x_at) / RFU SOX15 (11748057_x_at) / Fold change /veh SOX15 (11748057_x_at) / RFU CD79A (11719716_a_at) / Fold change /veh CD79A (11719716_a_at) / RFU HIST1H1D (11736915_at) / Fold change /veh HIST1H1D (11736915_at) / RFU CASKIN2 (11723855_a_at) / Fold change /veh CASKIN2 (11723855_a_at) / RFU LOC730098 (11760151_x_at) / Fold change /veh LOC730098 (11760151_x_at) / RFU OR4N2 (11742367_at) / Fold change /veh OR4N2 (11742367_at) / RFU PRRT2 (11749266_a_at) / Fold change /veh PRRT2 (11749266_a_at) / RFU SNX32 (11753110_a_at) / Fold change /veh SNX32 (11753110_a_at) / RFU CDHR5 (11726645_a_at) / Fold change /veh CDHR5 (11726645_a_at) / RFU RCAN1 (11760418_a_at) / Fold change /veh RCAN1 (11760418_a_at) / RFU FAM167A (11723789_a_at) / Fold change /veh FAM167A (11723789_a_at) / RFU FAM26E (11764081_at) / Fold change /veh FAM26E (11764081_at) / RFU ISYNA1 (11749810_s_at) / Fold change /veh ISYNA1 (11749810_s_at) / RFU ACY1 (11761880_at) / Fold change /veh ACY1 (11761880_at) / RFU 11764098_at / Fold change /veh 11764098_at / RFU SAMD14 (11745864_x_at) / Fold change /veh SAMD14 (11745864_x_at) / RFU NPB (11741838_a_at) / Fold change /veh NPB (11741838_a_at) / RFU TMPRSS6 (11731388_a_at) / Fold change /veh TMPRSS6 (11731388_a_at) / RFU KRTAP10-2 (11738614_at) / Fold change /veh KRTAP10-2 (11738614_at) / RFU ARHGAP8 /// PRR5-ARHGAP8 (11727945_x_at) / Fold change /veh ARHGAP8 /// PRR5-ARHGAP8 (11727945_x_at) / RFU KRTAP5-7 /// NADSYN1 (11734609_at) / Fold change /veh KRTAP5-7 /// NADSYN1 (11734609_at) / RFU RASL12 (11751679_a_at) / Fold change /veh RASL12 (11751679_a_at) / RFU CDKN2B (11736163_a_at) / Fold change /veh CDKN2B (11736163_a_at) / RFU PRF1 (11729649_at) / Fold change /veh PRF1 (11729649_at) / RFU, ZNF638 /// ZNF638-IT1 / Fold change vs veh, ZNF638 /// ZNF638-IT1 / RFU, PANK3 / Fold change vs veh, PANK3 / RFU, SH3YL1 / Fold change vs veh, SH3YL1 / RFU, ZEB2 / Fold change vs veh, ZEB2 / RFU, NRIP1 / Fold change vs veh, NRIP1 / RFU, PTTG1IP / Fold change vs veh, PTTG1IP / RFU, CAPN2 / Fold change vs veh, CAPN2 / RFU, MED14 / Fold change vs veh, MED14 / RFU, SNORA58 / Fold change vs veh, SNORA58 / RFU, C1orf63 / Fold change vs veh, C1orf63 / RFU, LRRFIP1 / Fold change vs veh, LRRFIP1 / RFU, NDUFAF7 / Fold change vs veh, NDUFAF7 / RFU, SLC12A2 / Fold change vs veh, SLC12A2 / RFU, IBTK / Fold change vs veh, IBTK / RFU, ESF1 / Fold change vs veh, ESF1 / Fold change vs veh, TMEM50B / RFU, TAOK1 / Fold change vs veh, TAOK1 / RFU, ACBD3 / Fold change vs veh, ACBD3 / RFU, TMA16 / Fold change vs veh, TMA16 / RFU, RWDD3 / Fold change vs veh, RWDD3 / RFU, BCAT1 / Fold change vs veh, BCAT1 / RFU, EDEM3 / Fold change vs veh, EDEM3 / RFU, TMEM33 / Fold change vs veh, TMEM33 / RFU, WDR75 / Fold change vs veh, WDR75 / RFU, AHCTF1 / Fold change vs veh, AHCTF1 / RFU, TFRC / Fold change vs veh, TFRC / RFU, ZDHHC17 / Fold change vs veh, ZDHHC17 / RFU, NOM1 / Fold change vs veh, NOM1 / RFU, ARL8B / Fold change vs veh, ARL8B / RFU, ZBTB11 / Fold change vs veh, ZBTB11 / RFU, TAMM41 / Fold change vs veh, TAMM41 / RFU, KIAA1704 /// LOC100996395 / Fold change vs veh, KIAA1704 /// LOC100996395 / RFU, ING1 / Fold change vs veh, ING1 / RFU, TRMT61B / Fold change vs veh, TRMT61B / RFU, FUBP3 / Fold change vs veh, FUBP3 / RFU, TP53 / Fold change vs veh, TP53 / RFU, TNKS2 / Fold change vs veh, TNKS2 / RFU, ZFP14 / Fold change vs veh, ZFP14 / RFU, ACTR2 / Fold change vs veh, ACTR2 / RFU, PPP3R1 / Fold change vs veh, PPP3R1 / RFU, PIK3R1 / Fold change vs veh, PIK3R1 / RFU, HNRNPA1 / Fold change vs veh, HNRNPA1 / RFU, RNF170 / Fold change vs veh, RNF170 / RFU, ZNF28 / Fold change vs veh, ZNF28 / RFU, RNGTT / Fold change vs veh, RNGTT / RFU, OGT / Fold change vs veh, OGT / RFU, BRD1 / Fold change vs veh, BRD1 / RFU, MARS / Fold change vs veh, MARS / RFU, ZNF655 / Fold change vs veh, ZNF655 / RFU, FAHD1 / Fold change vs veh, FAHD1 / RFU, BDP1 / Fold change vs veh, BDP1 / RFU, LRRCC1 / Fold change vs veh, LRRCC1 / RFU, ARID1A / Fold change vs veh, ARID1A / RFU, ZNF146 / Fold change vs veh, ZNF146 / RFU, ZNF330 / Fold change vs veh, ZNF330 / RFU, GPN3 / Fold change vs veh, GPN3 / RFU, C9orf123 / Fold change vs veh, C9orf123 / RFU, N4BP2L2 / Fold change vs veh, N4BP2L2 / RFU, ARFIP1 / Fold change vs veh, ARFIP1 / RFU, FAM179B / Fold change vs veh, FAM179B / RFU, BCL10 / Fold change vs veh, BCL10 / RFU, UHRF1BP1L / Fold change vs veh, UHRF1BP1L / RFU, BET1 / Fold change vs veh, BET1 / RFU, CNOT2 / Fold change vs veh, CNOT2 / RFU, ZNF268 / Fold change vs veh, ZNF268 / Fold change vs veh, ZNF507 / RFU, DGCR2 / Fold change vs veh, DGCR2 / RFU, WDSUB1 / Fold change vs veh, WDSUB1 / Fold change vs veh, HSP90B1 /// MIR3652 / RFU, ADSS / Fold change vs veh, ADSS / RFU, GK / Fold change vs veh, GK / RFU, ZNF148 / Fold change vs veh, ZNF148 / RFU, TAF9 / Fold change vs veh, TAF9 / RFU, SLC1A5 / Fold change vs veh, SLC1A5 / RFU, SLMO2 / Fold change vs veh, SLMO2 / RFU, ABCC4 / Fold change vs veh, ABCC4 / RFU, LOC101060439 /// RAP1B / Fold change vs veh, LOC101060439 /// RAP1B / RFU, RFX7 / Fold change vs veh, RFX7 / RFU, GTPBP10 / Fold change vs veh, GTPBP10 / RFU, CNEP1R1 / Fold change vs veh, CNEP1R1 / RFU, BIVM-ERCC5 /// ERCC5 / Fold change vs veh, BIVM-ERCC5 /// ERCC5 / RFU, ILF3 / Fold change vs veh, ILF3 / RFU 11762660_at / Fold change /veh 11762660_at / RFU VCAN (11757783_s_at) / Fold change /veh VCAN (11757783_s_at) / RFU DDX43 (11728927_at) / Fold change /veh DDX43 (11728927_at) / RFU KRT8 (11758188_x_at) / Fold change /veh KRT8 (11758188_x_at) / RFU NKD1 (11759106_at) / Fold change /veh NKD1 (11759106_at) / RFU SRD5A1 (11742802_a_at) / Fold change /veh SRD5A1 (11742802_a_at) / RFU TPSAB1 /// TPSB2 (11721975_s_at) / Fold change /veh TPSAB1 /// TPSB2 (11721975_s_at) / RFU GSTM3 (11746129_a_at) / Fold change /veh GSTM3 (11746129_a_at) / RFU IL23R (11737362_x_at) / Fold change /veh IL23R (11737362_x_at) / RFU TMEM51 (11727254_a_at) / Fold change /veh TMEM51 (11727254_a_at) / RFU PIWIL2 (11732686_x_at) / Fold change /veh PIWIL2 (11732686_x_at) / RFU ORM1 (11744905_x_at) / Fold change /veh ORM1 (11744905_x_at) / RFU CCDC152 (11743942_at) / Fold change /veh CCDC152 (11743942_at) / RFU ECM1 (11717891_a_at) / Fold change /veh ECM1 (11717891_a_at) / RFU IL23R (11748794_a_at) / Fold change /veh IL23R (11748794_a_at) / RFU TNFAIP8L3 (11732012_x_at) / Fold change /veh TNFAIP8L3 (11732012_x_at) / RFU MBOAT4 (11741988_at) / Fold change /veh MBOAT4 (11741988_at) / RFU 11764193_at / Fold change /veh 11764193_at / RFU TMEM53 (11763286_at) / Fold change /veh TMEM53 (11763286_at) / RFU MAGEB2 (11727129_at) / Fold change /veh MAGEB2 (11727129_at) / RFU TMEM200A (11744735_a_at) / Fold change /veh TMEM200A (11744735_a_at) / RFU CCDC152 (11751479_a_at) / Fold change /veh CCDC152 (11751479_a_at) / RFU FAM211A (11726209_a_at) / Fold change /veh FAM211A (11726209_a_at) / RFU RGS16 (11746705_a_at) / Fold change /veh RGS16 (11746705_a_at) / RFU VCAN (11755009_s_at) / Fold change /veh VCAN (11755009_s_at) / RFU RHOB (11743442_s_at) / Fold change /veh RHOB (11743442_s_at) / RFU RGS16 (11720943_a_at) / Fold change /veh RGS16 (11720943_a_at) / RFU RGS16 (11720944_at) / Fold change /veh RGS16 (11720944_at) / RFU, VPS4B / Fold change vs veh, VPS4B / RFU, CREB1 / Fold change vs veh, CREB1 / RFU, DNAJC13 / Fold change vs veh, DNAJC13 / RFU, GNAQ / Fold change vs veh, GNAQ / RFU, CDK5R1 / Fold change vs veh, CDK5R1 / RFU, ZRANB3 / Fold change vs veh, ZRANB3 / RFU, CUL4A / Fold change vs veh, CUL4A / RFU, CCNY / Fold change vs veh, CCNY / RFU, UFL1 / Fold change vs veh, UFL1 / RFU, COG3 / Fold change vs veh, COG3 / RFU, DIAPH2 / Fold change vs veh, DIAPH2 / RFU, SKA2 / Fold change vs veh, SKA2 / RFU, AFF3 / Fold change vs veh, AFF3 / RFU, LMF1 / Fold change vs veh, LMF1 / RFU, IPO11 / Fold change vs veh, IPO11 / RFU, DFFB / Fold change vs veh, DFFB / RFU, FOXP1 / Fold change vs veh, FOXP1 / RFU, CARD8 / Fold change vs veh, CARD8 / RFU, STRN3 / Fold change vs veh, STRN3 / RFU, ADK / Fold change vs veh, ADK / RFU, RASSF2 / Fold change vs veh, RASSF2 / RFU, WIPF1 / Fold change vs veh, WIPF1 / RFU, LARP1B / Fold change vs veh, LARP1B / RFU, RASA1 / Fold change vs veh, RASA1 / RFU, RB1 / Fold change vs veh, RB1 / RFU, PPFIA1 / Fold change vs veh, PPFIA1 / RFU, MAT2A / Fold change vs veh, MAT2A / RFU, CCT5 / Fold change vs veh, CCT5 / RFU, WDR92 / Fold change vs veh, WDR92 / RFU, CUX1 / Fold change vs veh, CUX1 / RFU, TTC7A / Fold change vs veh, TTC7A / RFU, TMEM135 / Fold change vs veh, TMEM135 / RFU, DEPTOR / Fold change vs veh, DEPTOR / RFU, CPM / Fold change vs veh, CPM / RFU, DNAJB6 / Fold change vs veh, DNAJB6 / RFU, CACNA2D3 / Fold change vs veh, CACNA2D3 / RFU, DTX4 / Fold change vs veh, DTX4 / RFU, TFCP2 / Fold change vs veh, TFCP2 / RFU, GMCL1 /// GMCL1P1 / Fold change vs veh, GMCL1 /// GMCL1P1 / RFU, AEBP2 / Fold change vs veh, AEBP2 / RFU, SNHG1 /// SNORD22 /// SNORD25 /// SNORD26 /// SNORD27 /// SNORD28 /// SNORD29 /// SNORD31 / Fold change vs veh, SNHG1 /// SNORD22 /// SNORD25 /// SNORD26 /// SNORD27 /// SNORD28 /// SNORD29 /// SNORD31 / Fold change (Aza/veh), C12orf56 (ProbeSet 11735607_a_at) / Fold change (ACY-1035/veh), C12orf56 (ProbeSet 11735607_a_at) / Fold change (Aza/veh), FGFR1OP (ProbeSet 11751329_s_at) / Fold change (ACY-1035/veh), FGFR1OP (ProbeSet 11751329_s_at) / Fold change (Aza/veh), VPS36 (ProbeSet 11739960_a_at) / Fold change (ACY-1035/veh), VPS36 (ProbeSet 11739960_a_at) / RFU SYPL1 (11715823_x_at) / Fold change /veh SYPL1 (11715823_x_at) / RFU IGFBP7 (11715501_s_at) / Fold change /veh IGFBP7 (11715501_s_at) / RFU REEP3 (11722064_at) / Fold change /veh REEP3 (11722064_at) / RFU IGLL1 (11728026_x_at) / Fold change /veh IGLL1 (11728026_x_at): dose or concentration left out as unconfirmed
Conditions: ProbeSet 11744854_x_at; LIST B

## Nc1ncn([C@@H]2O[C@H](CO)[C@@H](O)[C@H]2O)c(=O)n1 [azacitidine]
  Fold change vs veh, ZNF28: 0.91

Reference: paper PMC5218480 (PLoS ONE, 2017)
